Experimental data as given in patent US20260306642A1, “STAT DEGRADERS AND USES THEREOF” (Recludix Pharma, Inc., priority 2023, published 2026).
Like-named read-outs stand apart in the source and are kept apart here.

How the values were obtained:
pSTAT6 = target: T1, pSTAT6 (Homo sapiens, UniProt P42226); experiment: MSD-pSTAT-PBMC Assay (pSTAT6, IL-4 stimulated); type: cell-based
T1 sequence (P42226 1-847): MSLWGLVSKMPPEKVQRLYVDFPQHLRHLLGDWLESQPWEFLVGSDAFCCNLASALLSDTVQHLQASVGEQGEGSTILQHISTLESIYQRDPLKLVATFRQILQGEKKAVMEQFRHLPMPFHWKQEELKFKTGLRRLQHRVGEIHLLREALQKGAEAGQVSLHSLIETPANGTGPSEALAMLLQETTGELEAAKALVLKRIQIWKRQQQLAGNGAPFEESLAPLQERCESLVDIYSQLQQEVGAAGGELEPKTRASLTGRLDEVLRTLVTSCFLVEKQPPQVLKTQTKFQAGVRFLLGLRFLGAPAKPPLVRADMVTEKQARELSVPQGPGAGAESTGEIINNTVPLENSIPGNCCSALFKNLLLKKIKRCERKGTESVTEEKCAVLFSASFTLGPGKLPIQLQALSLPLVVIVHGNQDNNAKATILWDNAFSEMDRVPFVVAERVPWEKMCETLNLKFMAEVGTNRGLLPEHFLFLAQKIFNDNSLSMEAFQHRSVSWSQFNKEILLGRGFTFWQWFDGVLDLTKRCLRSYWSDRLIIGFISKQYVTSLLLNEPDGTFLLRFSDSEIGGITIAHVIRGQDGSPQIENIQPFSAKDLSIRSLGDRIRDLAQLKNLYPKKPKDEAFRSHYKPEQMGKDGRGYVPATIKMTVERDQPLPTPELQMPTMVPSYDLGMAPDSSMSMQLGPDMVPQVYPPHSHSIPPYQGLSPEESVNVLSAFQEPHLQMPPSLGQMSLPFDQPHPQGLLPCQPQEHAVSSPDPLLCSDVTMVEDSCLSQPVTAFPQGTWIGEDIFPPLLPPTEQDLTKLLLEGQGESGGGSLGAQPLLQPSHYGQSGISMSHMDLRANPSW
From the text: Cryopreserved Peripheral Blood Mononuclear Cells (PBMC) are from AllCells. Recombinant Human IL-4 and IL-6 are from Peprotech. Mouse monoclonal anti-STAT3 antibody, rabbit monoclonal anti-pY705-STAT3 antibody, rabbit monoclonal Anti-pY641-STAT6 antibody, and lysis buffer are from Cell Signaling Technology (CST). Mouse monoclonal anti-STAT6 antibody is from BioLegend. Assay plates, blocker, and anti-rabbit secondary antibody are from Meso Scale Discovery (MSD).
Cryopreserved PBMCs were thawed out and allowed to recover overnight in IMDM+10% heat-inactivated FBS prior to plating 50,000 (STAT3) or 25,000 (STAT6) cells per well in 96-well U-bottom tissue culture plates. Cells were treated with compound for 3 hrs, then stimulated with 10 ng/mL IL-6 (STAT3) or 1 ng/mL IL-4 (STAT6) for 10 min. Cells were then spun down and washed with ice-cold PBS prior to lysing the cell pellet with 1× lysis buffer (CST) with 1× HALT protease and phosphatase inhibitor cocktail (Thermo). Lysates were transferred to and incubated overnight at 4° C. with shaking in QuickPlex 96-well high bind assay plates (MSD) pre-coated overnight with 30 μL per well of […] mouse monoclonal anti-STAT3 antibody (STAT3) or 2 μg/mL mouse monoclonal anti-STAT6 antibody (STAT6) in 1× PBS, and pre-blocked for 1 hour with 3% Blocker-A (MSD). Captured protein in the assay plates were then washed and probed with 25 μL per well of […] rabbit monoclonal anti-pY705-STAT3 antibody (STAT3) or […] rabbit monoclonal Anti-pY641-STAT6 antibody (STAT6) in 1% Blocker-A for 1 hour at room temperature with shaking, then washed and probed with 25 ul per well of 1 ug/ml Sulfo-TAG Labeled Goat Anti-Rabbit Antibody (MSD) in 1% Blocker-A for 1 hour at room temperature with shaking. Assay plates were then washed and 150 μL of 1× Read Buffer-T (MSD) was added to each well prior to reading on an SQ120 MSD Plate Reader. Assay signal from each sample was subtracted by the signal from unstimulated control wells and normalized to DMSO control wells. IC50 values were calculated using Graph Pad Prism Dose-Response Nonlinear Regression with variable slope. For both pSTAT3 and pSTAT6 A=≤100 nM; B=>100-1000 nM; C=>1000-3000 nM; and D=>3 μM.

pSTAT3 = pSTAT3 (Homo sapiens, UniProt P40763); experiment: MSD-pSTAT-PBMC Assay (pSTAT3, IL-6 stimulated); type: cell-based; details: compound 3 hrs, then 10 ng/mL IL-6 10 min, pY705-STAT3, read-out: pSTAT3 IC50
Chain of pSTAT3 (P40763 whole entry): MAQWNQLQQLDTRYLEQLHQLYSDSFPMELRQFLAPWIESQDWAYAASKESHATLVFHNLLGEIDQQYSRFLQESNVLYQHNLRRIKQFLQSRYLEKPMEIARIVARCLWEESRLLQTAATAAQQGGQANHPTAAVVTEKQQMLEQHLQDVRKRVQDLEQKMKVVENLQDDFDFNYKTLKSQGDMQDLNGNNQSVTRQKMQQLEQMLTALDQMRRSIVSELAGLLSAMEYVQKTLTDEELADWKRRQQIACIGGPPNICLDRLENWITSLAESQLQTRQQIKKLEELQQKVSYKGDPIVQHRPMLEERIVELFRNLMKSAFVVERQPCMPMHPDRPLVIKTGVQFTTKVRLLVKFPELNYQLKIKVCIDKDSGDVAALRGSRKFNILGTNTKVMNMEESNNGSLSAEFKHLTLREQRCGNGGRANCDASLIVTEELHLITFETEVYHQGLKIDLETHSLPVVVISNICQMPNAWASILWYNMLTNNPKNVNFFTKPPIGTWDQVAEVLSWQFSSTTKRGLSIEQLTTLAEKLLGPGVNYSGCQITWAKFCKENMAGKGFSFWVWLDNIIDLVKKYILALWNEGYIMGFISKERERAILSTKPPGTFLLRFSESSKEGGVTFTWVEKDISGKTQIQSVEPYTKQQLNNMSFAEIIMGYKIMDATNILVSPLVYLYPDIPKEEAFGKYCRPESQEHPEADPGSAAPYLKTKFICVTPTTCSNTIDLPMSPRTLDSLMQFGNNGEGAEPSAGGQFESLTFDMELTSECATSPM
Summary of the method: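 Human PBMCs, recovered overnight, get compound for 3 hrs, then 10 min stimulation with 10 ng/mL IL-6 (pSTAT3; 50,000 cells) or 1 ng/mL IL-4 (pSTAT6; 25,000 cells). Lysates go to MSD sandwich immunoassay (pY705-STAT3 or pY641-STAT6 detection); signal minus unstimulated, normalized to DMSO, IC50 by variable-slope fit.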

STAT3 = target: T2, STAT3 (Homo sapiens, UniProt P40763); experiment: STAT3 Fluorescence Polarization (FP) Assay; type: binding
T2 construct: Recombinant STAT3 protein (STAT3(G127-I722))
T2 sequence (P40763 127-722): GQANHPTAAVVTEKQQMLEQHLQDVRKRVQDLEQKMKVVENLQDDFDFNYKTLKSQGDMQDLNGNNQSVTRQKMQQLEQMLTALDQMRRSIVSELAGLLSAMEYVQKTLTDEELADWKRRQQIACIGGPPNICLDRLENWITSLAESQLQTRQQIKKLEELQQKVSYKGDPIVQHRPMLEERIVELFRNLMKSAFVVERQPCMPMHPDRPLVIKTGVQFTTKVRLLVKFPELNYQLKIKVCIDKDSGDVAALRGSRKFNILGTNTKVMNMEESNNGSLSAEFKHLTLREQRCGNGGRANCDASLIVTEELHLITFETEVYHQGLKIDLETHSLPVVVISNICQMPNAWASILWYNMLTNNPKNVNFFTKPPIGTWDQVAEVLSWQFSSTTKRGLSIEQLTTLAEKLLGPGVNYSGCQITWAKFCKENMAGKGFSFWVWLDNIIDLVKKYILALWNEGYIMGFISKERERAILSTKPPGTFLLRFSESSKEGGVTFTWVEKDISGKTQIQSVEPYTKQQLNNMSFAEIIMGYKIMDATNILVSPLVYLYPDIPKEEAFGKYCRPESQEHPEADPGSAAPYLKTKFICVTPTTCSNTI
Experimental: An FP assay was developed to determine IC50 values for test substances.
Recombinant STAT3 protein (STAT3(G127-I722)) at 25 nM was combined with a fluorescently labeled, phosphotyrosine peptide probe (5-FAM-GpYLPQTV-NH2) at 2 nM in FP buffer (10 mM HEPES pH 7.4, 50 mM NaCl, 1 mM EDTA, 0.05% Tween 20, 2 mM DTT). 50 μL of STAT3-probe mixture was added to serial diluted compounds in black, 96-well plates (Greiner BioOne 655076) to a final concentration of 1% DMSO. Reaction components were mixed, and FP was measured after 45-minute incubation at room temperature using a Tecan Spark multimode plate reader. FP signal (mP) was plotted against the log concentration of the test substances and IC50 values were calculated by nonlinear regression analysis using GraphPad Prism software. For STAT3 FP assay, A=≤100 nM; B=>100-1000 nM; C=>1-10 μM; and D=>10 μM.

STAT6 = target: T3, STAT6 (Homo sapiens, UniProt P42226); experiment: STAT6 Fluorescence Polarization (FP) Assay; type: binding
T3 construct: Recombinant STAT6 protein (STAT6(W123-T658))
T3 sequence (P42226 123-658): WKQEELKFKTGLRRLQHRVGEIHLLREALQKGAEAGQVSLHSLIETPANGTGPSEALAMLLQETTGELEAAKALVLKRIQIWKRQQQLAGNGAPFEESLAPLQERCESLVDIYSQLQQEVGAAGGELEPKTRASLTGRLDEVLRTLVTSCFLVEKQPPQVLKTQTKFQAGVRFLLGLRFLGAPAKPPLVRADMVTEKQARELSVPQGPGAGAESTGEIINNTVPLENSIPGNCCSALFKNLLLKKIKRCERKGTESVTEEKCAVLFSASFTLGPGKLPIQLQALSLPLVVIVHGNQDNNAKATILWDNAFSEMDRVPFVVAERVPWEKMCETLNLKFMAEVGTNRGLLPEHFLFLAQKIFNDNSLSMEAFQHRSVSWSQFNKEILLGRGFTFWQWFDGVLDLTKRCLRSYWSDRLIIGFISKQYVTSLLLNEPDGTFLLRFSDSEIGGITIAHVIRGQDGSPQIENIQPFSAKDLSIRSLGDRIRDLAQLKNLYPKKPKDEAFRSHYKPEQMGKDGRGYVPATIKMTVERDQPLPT
Experimental: An FP assay was developed to determine IC50 values for test substances. Recombinant STAT6 protein (STAT6(W123-T658)) at 250 nM was combined with a fluorescently labeled, phosphotyrosine peptide probe (5-FAM-ApYKPFQDLI-NH2) at 2 nM in FP buffer (10 mM HEPES pH 7.4, 50 mM NaCl, 1 mM EDTA, 0.05% Tween 20, 2 mM DTT). 50 μL of STAT6-probe mixture was added to serial diluted compounds in black, 96-well plates (Greiner BioOne 655076) to a final concentration of 1% DMSO. Reaction components were mixed, and FP was measured after 45-minute incubation at room temperature using a Tecan Spark multimode plate reader. FP signal (mP) was plotted against the log concentration of the test substances and IC50 values were calculated by nonlinear regression analysis using GraphPad Prism software. For STAT6 FP assay, A=≤300 nM; B=>300-3000 nM; C=>3-30 μM; and D=>30 μM.

[1] = read-out: pSTAT6 IC50, compound 3 hrs, then 1 ng/mL IL-4 10 min, pY641-STAT6

CCCC(=O)SCCOP(=O)(OCCSC(=O)CCC)C(F)(F)c1ccc2sc(C(=O)NC3CCCCC4CCC(C(=O)N5CC(C#N)C(c6cccc(N7CCN(c8ccc9c(c8)[nH]c(=O)n9C8CCC(=O)NC8=O)CC7)c6)C5)N4C3=O)cc2c1 [Compound 23, S,S(((((2-(((3S,6S,10aS)-3-((rel-3S,4R)-3-cyano-4-(3-(4-(1-(2,6-dioxopiperidin-3-yl)-2-oxo-2,3-dihydro-1H-benzo[d]imidazol-5-yl)piperazin-1-yl)phenyl)pyrrolidine-1-carbonyl)-5-oxodecahydropyrrolo[1,2-a]azocin-6-yl)carbamoyl)benzo[b]thiophen-5-yl)difluoromethyl)phosphoryl)bis(oxy))bis(ethane-2,1-diyl)) dibutanethioate]
IC50 (pSTAT6; [1]): < 100 nM

CCCC(=O)SCCOP(=O)(OCCSC(=O)CCC)C(F)(F)c1ccc2sc(C(=O)N[C@H]3CCCC[C@H]4CC[C@@H](C(=O)N5C[C@@H](c6ccn(CCCCCCC#Cc7cccc8c7CN(C7CCC(=O)NC7=O)C8=O)c(=O)c6)CC56CC6)N4C3=O)cc2c1 (stereo partly drawn) [Compound 6, S,S((((2-(((3S,6S,10aS)-3-((6R)-6-(1-(8-(2-(2,6-dioxopiperidin-3-yl)-1-oxoisoindolin-4-yl)oct-7-yn-1-yl)-2-oxo-1,2-dihydropyridin-4-yl)-4-azaspiro[2.4]heptane-4-carbonyl)-5-oxodecahydropyrrolo[1,2-a]azocin-6-yl)carbamoyl)benzo[b]thiophen-5-yl)difluoromethyl)phosphoryl)bis(oxy))bis(ethane-2,1-diyl)) dibutanethioate]
IC50 (pSTAT6; compound 3 hrs, then 1 ng/mL IL-4 10 min, pY641-STAT6, read-out: pSTAT6 IC50): < 100 nM

CCCC(=O)SCCOP(=O)(OCCSC(=O)CCC)C(F)(F)c1ccc2sc(C(=O)N[C@H]3CCCC[C@H]4CC[C@@H](C(=O)N5C[C@@H](c6ccn(C7CCN(c8ccc9c(c8)[nH]c(=O)n9C8CCC(=O)NC8=O)CC7)c(=O)c6)CC56CC6)N4C3=O)cc2c1 (stereo partly drawn) [Compound 25, S,S((((2-(((3S,6S,10aS)-3-((6R)-6-(1-(1-(1-(2,6-dioxopiperidin-3-yl)-2-oxo-2,3-dihydro-1H-benzo[d]imidazol-5-yl)piperidin-4-yl)-2-oxo-1,2-dihydropyridin-4-yl)-4-azaspiro[2.4]heptane-4-carbonyl)-5-oxodecahydropyrrolo[1,2-a]azocin-6-yl)carbamoyl)benzo[b]thiophen-5-yl)difluoromethyl)phosphoryl)bis(oxy))bis(ethane-2,1-diyl)) dibutanethioate]
IC50 (pSTAT6; [1]): 100 to 1000 nM

Cc1ncsc1-c1ccc(CNC(=O)[C@@H]2C[C@@H](O)CN2C(=O)[C@@H](NC(=O)C2CCN(c3ccncc3C3CN(C(=O)[C@@H]4CC[C@@H]5CCC[C@H](NC(=O)c6cc7cc(C(F)(F)P(=O)(O)O)ccc7s6)C(=O)N54)C3)CC2)C(C)(C)C)cc1 [Compound 8, (difluoro(2-(((3S,6S,9aS)-3-(3-(4-(4-(((S)-1-((2S,4R)-4-hydroxy-2-((4-(4-methylthiazol-5-yl)benzyl)carbamoyl)pyrrolidin-1-yl)-3,3-dimethyl-1-oxobutan-2-yl)carbamoyl)piperidin-1-yl)pyridin-3-yl)azetidine-1-carbonyl)-5-oxooctahydro-1H-pyrrolo[1,2-a]azepin-6-yl)carbamoyl)benzo[b]thiophen-5-yl)methyl)phosphonic acid]
IC50 (pSTAT3): 1 to 3 µM | IC50 (STAT3): < 100 nM | IC50 (STAT6): 0.3 to 3 µM

O=C1CCC(c2ccc(OCCOCCOc3ccncc3C3CN(C(=O)[C@@H]4CC[C@@H]5CCC[C@H](NC(=O)c6cc7cc(C(F)(F)P(=O)(O)O)ccc7s6)C(=O)N54)C3)cc2)C(=O)N1 (stereo partly drawn) [Compound 11, ((2-(((3S,6S,9aS)-3-(3-(4-(2-(2-(4-(2,6-dioxopiperidin-3-yl)phenoxy)ethoxy)ethoxy)pyridin-3-yl)azetidine-1-carbonyl)-5-oxooctahydro-1H-pyrrolo[1,2-a]azepin-6-yl)carbamoyl)benzo[b]thiophen-5-yl)difluoromethyl)phosphonic acid]
IC50 (pSTAT3): > 3 µM | IC50 (STAT3): < 100 nM | IC50 (STAT6): 3 to 30 µM
